58 compounds from the METLIN SMRT retention time set (Domingo-Almenara et al. 2019) can be followed below.

This data set can be described thus: gradient 5% acetonitrile 3 min, to 50% in 2 min, to 85% in 15 min, held 3 min, 100 µL/min. Particulars: column: Zorbax Extend-C18 2.1 x 50 mm; eluents: water / acetonitrile, 0.1% formic acid. In a few lines:
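Using water and acetonitrile that each contained 0.1% formic acid, mixtures of ~100 pure standards were separated at 100 μL/min on a Zorbax Extend-C18 column (2.1 × 50 mm, 1.8 μm). The HPLC fed a quadrupole time-of-flight mass spectrometer working in positive and negative ionization mode, with dead and dwell volumes of 40 μL and 900 μL. Data were acquired over 3 months. Retention time was read from computationally picked adduct peaks after manual inspection of each.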
In the case of `CCn1ccc(C(=O)Nc2cccc(OCc3nnc(-c4ccc(OC)cc4)o3)c2)n1`, the RP-LC retention time came out at 891 s.
In turn, `COC(=O)C1=C(C)N(C(C)C)C(=O)C1(NC(=O)CCc1ccccc1)C(F)(F)F` (stereo not drawn) had an RP-LC retention time of 936 s.
Take `COCCN(Cc1ccc(C(C)C)cc1)Cc1cc(=O)n2cc(C)ccc2n1`: the RP-LC retention time was 719 s.
For the compound `O=C(NCc1ccccc1F)C1CCN(c2cncnc2N2CCCC2)CC1`, the RP-LC retention time turned out to be 641 s.
`CCNC(=O)CCc1cc2ccccc2[nH]c1=O` had an RP-LC retention time of 623 s.
Next, `COc1cccc(NC(=O)Nc2ccc3nc(N4CCN(C)CC4)cc(C)c3c2)c1`: 587 s.
In turn, `COc1ccc(N2C=C(C(=O)N3CCCC3)S(=O)(=O)c3ccc(F)cc32)cc1` registered an RP-LC retention time of 736 s.
Regarding `O=C(NCc1ccc(Br)cc1)C1CCCN(c2ccnc(-c3ccc(F)cc3)n2)C1` (stereo not drawn), the RP-LC retention time is 730 s.
Next, `COc1ccc(-c2noc(C3CCCN3C(=O)Nc3cc(Cl)ccc3OC)n2)cc1` (stereo not drawn): 1130 s.
With `O=S(=O)(Nc1ccc(-c2noc(COc3ccc(F)cc3)n2)cc1)c1cccs1` the figure was 1040 s; with `Fc1ccc(-c2nc3cnccn3c2Nc2ccc3c(c2)OCCO3)cc1`, 818 s; with `COc1cccc(-c2csc(-c3nnn(-c4ccc(C)cc4)c3N)n2)c1`, 1140 s.
Next, `Cc1cccc(NC(=O)c2c(O)c3cccnc3n(-c3ccccc3)c2=O)c1C`: 1300 s; `Cc1c(Cl)cccc1S(=O)(=O)NCC1CCN(C(=O)c2cccn(C)c2=O)CC1`: 654 s.
In turn, `O=C(Nc1ccc2c(c1)OCCO2)C1CCCN(c2ccnc(-c3ccc(F)cc3)n2)C1` (stereo not drawn) yielded an RP-LC retention time of 691 s.
With `CCOc1ccccc1N1CCN(S(=O)(=O)c2nn(C)cc2C(=O)NCCCOC(C)C)CC1` the figure was 971 s; with `CNC(=O)c1cnc(-c2ccc(Cl)cc2)n(CC(=O)N2CCc3ccccc32)c1=O`, 997 s; with `Cc1ccc(-c2cc3c4nn(CC(=O)NCc5ccco5)c(=O)n4ccn3n2)cc1C`, 874 s.
Next, `CC1(C)C(=O)N(CC(=O)Nc2ccc(F)c(Cl)c2)c2ccccc21`: 966 s; `CCN(CC)S(=O)(=O)c1ccc2c(c1)N(CC(=O)NCC1COCCO1)C(=O)C1CCCCN21` (stereo not drawn): 769 s; `COc1ccc(CNC(=O)CSc2cc(N3CCN(c4ccc(OC)cc4)CC3)ncn2)cc1`: 1090 s.
Next, `O=c1c2ccccc2c(-c2nc(-c3cccnc3)no2)cn1-c1cccc(Cl)c1`: 1130 s.
With `O=C(NC1CCc2nnc(C3CC3)n2CC1)c1ccc(Cn2cncn2)o1` (stereo not drawn), the RP-LC retention time was found to be 558 s.
With `O=C(NCCC1=CCCCC1)C1CCN(c2ncccc2S(=O)(=O)N2CCCCC2)CC1` the figure was 1080 s.
With `CCC1Oc2ccc(S(=O)(=O)N3CCC(C(=O)N4CCc5ccccc54)CC3)cc2NC1=O` (stereo not drawn) the figure was 917 s; with `CC(C)CNC(=O)N1CCCC(CCc2nnc(-c3cnccn3)o2)C1` (stereo not drawn), 697 s; with `C=CCN1C(=O)COc2ccc(-c3nc(NC(=O)CCc4ccccc4)sc3C)cc21`, 1050 s.
Next, `O=C(COc1ccccc1)N1CCN(c2cc(-c3ccccc3)[nH]n2)CC1`: 776 s; `CCOC(=O)C(C)(C)Sc1nnc(N2CCN(c3ccccc3)CC2)s1`: 997 s; `Cc1ccc(Nc2c(-c3ccccc3)nc3cnccn23)c(Br)c1`: 1040 s.
`COCCNC(=O)CC1CCN(C(=O)c2ccc3oc(C4CC4)nc3c2)CC1` displayed an RP-LC retention time of 601 s.
`Cc1nnc(-c2ccc3ccn(CC(=O)NCc4ccccc4)c3c2)o1`: the RP-LC retention time came out at 1010 s.
The compound `CC(=O)N1CCc2cc(N3CC(C(=O)Nc4ccccc4C(F)(F)F)CC3=O)ccc21` (stereo not drawn) came in with an RP-LC retention time of 710 s.
The compound `Nc1c(C(=O)Nc2ccccc2F)sc2nc3c(cc12)CCCC3` registered an RP-LC retention time of 996 s.
Next, `Cc1cc(C(N)=O)c(C)n1Cc1ccc(F)cc1`: 752 s.
In turn, `CCOc1ccc(NC(=O)Cn2c(N3CCOCC3)nc(CC)cc2=O)cc1` came in with an RP-LC retention time of 732 s.
Next, `O=C(NC1CCCCC1)C1CCc2sc(C(=O)N3CCCCC3)cc2C1` (stereo not drawn): 891 s.
Next, `CCCn1c(=O)sc2cc(S(=O)(=O)N3CCC(C(=O)Nc4cccc(F)c4)CC3)ccc21`: 983 s; `O=C(Nc1cnc(-c2cccc(Cl)c2)nc1)c1ccsc1`: 1030 s; `Cc1ccccc1-c1nnc(COc2ccc(NC(=O)c3ccsc3)cc2)o1`: 911 s.
With `CCN(CC)CCNC(=O)c1c(C)[nH]c(/C=C2\C(=O)Nc3ccc(F)cc32)c1C`, the RP-LC retention time is 700 s.
The compound `COCCNC(=O)c1cn(C)c2ncccc12` returned an RP-LC retention time of 582 s.
Next, `CCOc1ccc(NC(=O)C2CCCN(C)C2)cc1` (stereo not drawn): 643 s; `CC(C)n1cnc2ccc(-c3noc(CSc4ccncc4)n3)cc21`: 565 s.
With `Cc1nnc2ccc(S(=O)(=O)Nc3ccc(Cl)cc3)cn12` the figure was 711 s; with `C[C@H](NC(=O)[C@H](Cc1ccccc1)NC(=O)OCc1ccccc1)C(=O)CF`, 824 s.
With `CCOc1ccccc1NC(=O)N1CCN(c2ccc(=O)n(-c3ccccc3)n2)CC1`, the RP-LC retention time amounted to 851 s.
With `CN(CCCNC(=O)C1CCCN(c2nnc(-n3cccc3)s2)C1)C1CCCCC1` (stereo not drawn) the figure was 653 s; with `Cc1nnsc1C(=O)N1CCC2(CC1)OCCN2S(=O)(=O)c1ccc(Cl)cc1`, 817 s; with `Fc1ccc(C2Cn3nnc(-c4nc(-c5cccc(Cl)c5)no4)c3CO2)cc1` (stereo not drawn), 1260 s.
Next, `CCn1cc(C)c(C(=O)O)c1CC(=O)NCc1ccc(SC)cc1`: 758 s; `COC(=O)C(C)NC(=O)NCc1cccn1Cc1ccccc1C` (stereo not drawn): 821 s; `CCN(CC)S(=O)(=O)c1cc(-c2nnc(-c3ccccc3OC)o2)ccc1OC`: 903 s.
With `CC(C)(C)n1nnnc1C1CC2(CCOCC2)C(=O)N1Cc1ccccc1` (stereo not drawn) the figure was 769 s.
Consider `CNC(=O)[C@@H]1CN(C(=O)c2cccc(Br)c2)C[C@H]1CO`, for which the RP-LC retention time was found to be 586 s.
Next, `O=C(CC1COc2ccccc2NC1=O)NCCc1cccs1` (stereo not drawn): 689 s.
Next, `CNC(=O)c1cc(Nc2ccc3nc(Nc4ccc(Cl)c(C(F)(F)F)c4)[nH]c3c2)ccn1`: 631 s; `CC1OC(O[C@H]2C[C@@H](O)[C@]3(CO)[C@H]4[C@H](O)C[C@]5(C)[C@@H](C6=CC(=O)OC6)CC[C@]5(O)[C@@H]4CC[C@]3(O)C2)C(O)C(O)C1O` (stereo partly drawn): 594 s.
